Results from publication PMC11277004, “Di- and Triselenoesters—Promising Drug Candidates for the Future Therapy of Triple-Negative Breast Cancer” (International Journal of Molecular Sciences, 2024).

How the values were obtained:
Type in all cases: cell-based, human
Bcl-2 = Bcl-2 protein level by flow cytometry, MCF-7; settings: 24 h
Method: (§1) For this purpose, Akt (PE), Bax (FITC), Bcl-2 (Alexa Fluor® 647), LC3A/B (Alexa Fluor® 488), and p53 (Alexa Fluor® 488) antibodies conjugated to different fluorochromes (all from Cell Signaling Technology, Beverly, MA, USA) were utilized. Each assay was performed according to the manufacturer's protocol available on their website. After incubation with the tested compounds, the cells were centrifuged, resuspended in 4% formaldehyde (100 μL/1 × 10^6 cells), and fixed for 15 min at room temperature. Afterward, to remove the formaldehyde, the cells were washed by centrifugation with excess PBS and the permeabilization step was triggered. For this purpose, ice-cold 90% methanol was added to the pre-chilled cell pellet, gently vortexed, and incubated for 1 h on ice. Later, the cells were washed by centrifugation with excess PBS again, resuspended in 100 μL of 1:100 diluted primary antibody (stain buffer was used for dilution), and incubated for 1 h at room temperature in the dark. After incubation, the cells were washed, resuspended in 300 μL PBS, and immediately tested with a flow cytometer (BD FACSCanto II, BD Biosciences Systems, San Jose, CA, USA; 10,000 events measured). The obtained results were analyzed using the FACSDiva 6.0 software (BD Biosciences Systems, San Jose, CA, USA). In the case of the p53 protein, the MRF values were obtained first during the flow cytometer readout utilizing FACSDiva software and later analyzed using FCS Express 7 (De Novo Software, Pasadena, CA, USA). The equipment calibration was performed using the BD Cytometer Setup and Tracking Beads (BD Biosciences, San Diego, CA, USA).

LC3A/B = LC3A/B protein level by flow cytometry, MDA-MB-231; settings: 24 h
Method: as §1

[1] = tested on: breast cancer cells (MCF-7 and MDA-MB-231); assay: Apoptosis induction, summary statements
Method: The FITC Annexin V Apoptosis Detection Kit II (BD Pharmingen, San Diego, CA, USA) and a flow cytometer (BD FACSCanto II, BD Biosciences Systems, San Jose, CA, USA) were used in this evaluation. The assay was performed according to the manufacturer’s instructions. Flow cytometer calibration was performed by preparing two controls—a positive and a negative control. […] The negative control was cells that were not treated with any of the proapoptotic agents. First, in the cells treated with the tested compounds as well as the controls, the medium was removed, and the cells were washed twice with cold PBS. Subsequently, the cells were resuspended in the binding buffer included in the kit at a concentration of 1 × 10^6 cells/mL. From each sample, 100 µL of cell suspension was taken and transferred to test tubes, to which 5 µL each of FITC annexin V and propidium iodide (PI) were then added. The contents of the test tubes were gently vortexed and incubated for 15 min at room temperature, protected from light. After the required time, the contents of the test tubes were made up to 500 µL with binding buffer and immediately analyzed in a flow cytometer (10,000 events measured). After the flow cytometer readout, the results were analyzed using the FACSDiva 6.0 software (BD Biosciences Systems, San Jose, CA, USA). […]

[2] = Viability (MTT) and DNA biosynthesis, summary statements over the tested cell lines; settings: human; MTT, 24 h; range over the tested cell lines; read-out: IC50, cytotoxic activity (range over cell lines)
Method: The MTT assay was used to determine the cytotoxic effects of the compounds in the study on MCF-7 and MDA-MB-231 breast cancer cells as well as MCF-10A normal human breast epithelial cells based on Carmichael’s method. All cultured cell lines were treated with varied concentrations of the tested compounds in the medium (0.5–5 µM) and incubated for 24 h in an incubator providing optimal conditions for cell culture growth (37 °C temperature, 5% CO2, and 90–95% humidity) in 6-well plates (baseline seeding density: 5 × 10^5 cells/well). After this time, the medium was removed, and the cell monolayer was washed with warm phosphate-buffered saline (PBS) without calcium and magnesium. In the next step, PBS and MTT solution in PBS (5 mg/mL) were added to each well to obtain a final MTT concentration of 0.5 mg/mL, and then the cells were incubated for 4 h (37 °C temperature, 5% CO2, 90–95% humidity). After the incubation period, the contents of each well were removed, 1 mL of DMSO was added to dissolve the formazan, and then the plate with the added DMSO was mixed for 5–10 min on a microplate shaker (Boeco, Hamburg, Germany). Then, 10 µL of Sorensen’s glycine buffer (a solution of 0.1 M glycine and 0.1 M sodium chloride adjusted to pH 10.5 with 0.1 M sodium hydroxide) was added. The absorbance of the obtained solution was immediately measured at a wavelength of λ = 570 nm using a Thermo Scientific Evolution 201 UV–VIS spectrophotometer (Thermo Fisher Scientific, Waltham, MA, USA). The absorbance result obtained in the control cells (without the addition of the tested compounds) was taken as 100%, while the viability of cells incubated with the tested compounds was presented as a percentage of the control value.
The study of the antiproliferative properties (intensity of [^3H]-thymidine incorporation into cell DNA) of the tested derivatives against tested cell lines (MCF-7, MDA-MB-231, MCF-10A) was performed after 24 h incubation with varied concentrations of the tested compounds in the medium (0.5–5 µM) in 6-well plates (baseline seeding density: 5 × 10^5 cells/well). After 24 h the medium was removed, the cells were washed with PBS (Corning, Kennebunk, ME, USA), and a fresh medium was added. […] Radioactivity was measured using the Scintillation Counter 1900 TR, TRI-CARB (Packard, Perkin Elmer, Inc., San Jose, CA, USA). The intensity of DNA biosynthesis in the analyzed cells was expressed in terms of dpm/well. The result of the radioactivity measurement in the control cells (without the addition of tested compounds) was taken as 100%, while the values of cells incubated with the tested compounds were presented as a percentage of the control value.

SMILES | Bcl-2 negative cells ± SD (Bcl-2; MCF-7, 0.5 μM) [%] | Bcl-2 negative cells ± SD (Bcl-2; MCF-7, 1 μM) [%] | LC3A/B positive cells ± SD (LC3A/B; MDA-MB-231, 0.5 μM) [%] | LC3A/B positive cells ± SD (LC3A/B; MDA-MB-231, 1 μM) [%] | development of necrosis in the breast cancer cell lines (in words) [1] | IC50 at 24 h [2] [nM]
N.N.[Cl][Pt][Cl] [Cisplatin, reference compound] | 2.7 ± 0.2 | 2.7 ± 0.1 | 2.4 ± 0.5 | 3.2 ± 0.3 | – | –
CC(=O)C[Se]C(=O)c1ccc(C(=O)[Se]CC(C)=O)cc1 [EDAG-1, Se,Se-bis(2-oxopropyl) benzene-1,4-bis(carboselenoate)] | 13.9 ± 0.9 | 38.4 ± 4.0 | 10.5 ± 1.4 | 15.4 ± 1.3 | did not affect the development of necrosis | 410 to 710
CC(=O)C[Se]C(=O)c1cc(C(=O)[Se]CC(C)=O)cc(C(=O)[Se]CC(C)=O)c1 [EDAG-8, Se,Se,Se-tris-(2-oxopropyl) benzene-1,3,5-tris-(carboxyselenoate)] | 45.2 ± 9.3 | 63.6 ± 3.7 | 14.8 ± 0.5 | 17.0 ± 1.6 | did not affect the development of necrosis | 410 to 710
